Test results: patent US20150196507A1, “CONTROL OF MILK PRODUCTION AND MAMMARY INVOLUTION” (Amelgo, LLC, priority 2009, published 2015)

What was measured:
[1] = tested on: primary human breast epithelial cells; assay: TEER of human mammary cultures; assay type: cell-based; conditions: for TEER change (FIG. 3): combination read at 36 hours
Excerpt: FIG. 3 is a graphic illustration of a similar experiment performed on mammary gland cultures biopsied from primary human breast epithelial cells.

[2] = tested on: multiparous Holstein cows; assay: Intramammary infusion at dry-off in Holstein cows (milk yield, milk composition, plasma lactose); assay type: in vivo, cow; conditions: for milk yield decline: day one following initiation of treatments, 5 mg in 5 ml carrier per quarter, control down 7.5 kg; for drop in amount of milk versus cows not receiving any infusion: after the first of three daily infusions, FIG. 6
Method: In a set of experiments, forty-five multiparous Holstein cows milked three times daily and producing at least 20 kg/day were randomly assigned to once a day milking and one of three intramammary treatments in each quarter for three days. A control group of fifteen cows received 5 ml of a carrier of 9:1 sterile water and oil via infusion. […] The third group of fifteen cows received a treatment of 5 ml the carrier containing 5 mg of the precursor for serotonin synthesis (5-HTP) via infusion.
The milk yield decline was greater for the second group (down 9.5 kg) and the third group (down 10.0 kg) than that of the first group (down 7.5 kg) on day one following the initiation of treatments (P<0.01).
The amount of milk dropped close to 10% for those cows receiving an infusion of 5-HTP versus cows not receiving any infusion.
Milk lactose, protein, and fat percentage were not affected by treatments, but the milk sodium to potassium ratio increased to 2.8 in the second group on day two as compared to 1.44 in the first group and 1.78 in the third group, (P<0.01).

[3] = tested on: cultures of mammary tissues taken from a lactating mouse; assay: Trans-epithelial electrical resistance (TEER) of mouse mammary tissue cultures; assay type: cell-based; parameters: dose or concentration left out as unconfirmed; conditions: fluoxetine, measured at 48 hours

| Compound | TEER change (FIG. 3) [1] | plasma lactose increase compared to the other two groups ([2]; day 1 post-infusion, P<0.001) | milk yield decline ([2]; P<0.01) [kg] | drop in amount of milk versus cows not receiving any infusion ([2]; day two) [%] | TEER change (FIG. 2) [3] | reduction in TEER ([1]; FIG. 3) [%] | milk sodium to potassium ratio ([2]; day two, first (control) group 1.44, P<0.01) |
| --- | --- | --- | --- | --- | --- | --- | --- |
| CNCCC(Oc1ccc(C(F)(F)F)cc1)c1ccccc1 (centres unmarked) [fluoxetine] | did not change TEER | increased two-fold | 9.5 | ~31 | – | – | – |
| CCN[C@@H](C)Cc1cccc(C(F)(F)F)c1 [dexfenfluramine] | – | – | – | – | decrease in TEER similar to that of the combination of phenelzine and fluoxetine | 50 | – |
| N[C@@H](Cc1c[nH]c2ccc(O)cc12)C(=O)O [5-HTP, 5-hydroxytryptophan] | – | – | 10.0 | ~10 | – | – | 1.78 |
| NNCCc1ccccc1 [phenelzine] | caused a decrease | – | – | – | small but significant increase in TEER | – | – |
